In ChEMBL document CHEMBL1201862, “PubChem BioAssay data set” (2004):
The source made the active and inactive calls.

Tests used:
[1] = molecular target: T1, Endoribonuclease toxin MazF (Escherichia coli K-12, UniProt P0AE70); experiment: activation of MazEF endoribonuclease cleavage – biochemical, fluorescence, single-stranded RNA substrate, uHTS hits, dose response (AID 588481); assay type: functional
T1 sequence (P0AE70 whole entry): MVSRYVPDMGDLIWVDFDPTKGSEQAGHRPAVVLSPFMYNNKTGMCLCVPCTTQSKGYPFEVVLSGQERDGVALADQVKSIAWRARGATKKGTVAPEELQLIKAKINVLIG

[2] = molecular target: T1, Endoribonuclease toxin MazF; experiment: substrate-only fluorescence increase artefacts – biochemical, single-stranded RNase substrate, counter-screen for MazEF activator project, dose response (AID 588502); assay type: functional
[3] = microbe, parasite or virus in culture; assay type: functional; conditions: Mycobacterium tuberculosis
[4] = molecular target: Cyclin-dependent kinase 5/CDK5 activator 1 (Homo sapiens, UniProt Q00535); experiment: blockade of human CDK5 activity – biochemical, cherry-picked samples, set 2, dose response (AID 504545)
Chain of Cyclin-dependent kinase 5/CDK5 activator 1 (Q00535 whole entry): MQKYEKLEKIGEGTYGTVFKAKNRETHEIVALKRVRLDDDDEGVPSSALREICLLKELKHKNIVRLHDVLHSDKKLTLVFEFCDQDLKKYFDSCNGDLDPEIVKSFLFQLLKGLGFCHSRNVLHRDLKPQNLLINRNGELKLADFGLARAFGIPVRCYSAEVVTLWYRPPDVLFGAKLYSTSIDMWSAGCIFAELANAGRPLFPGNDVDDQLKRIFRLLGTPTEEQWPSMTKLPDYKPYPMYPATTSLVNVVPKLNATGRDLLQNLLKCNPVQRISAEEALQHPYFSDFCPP
Chain of Cyclin-dependent kinase 5/CDK5 activator 1 (Q15078 whole entry, further chain): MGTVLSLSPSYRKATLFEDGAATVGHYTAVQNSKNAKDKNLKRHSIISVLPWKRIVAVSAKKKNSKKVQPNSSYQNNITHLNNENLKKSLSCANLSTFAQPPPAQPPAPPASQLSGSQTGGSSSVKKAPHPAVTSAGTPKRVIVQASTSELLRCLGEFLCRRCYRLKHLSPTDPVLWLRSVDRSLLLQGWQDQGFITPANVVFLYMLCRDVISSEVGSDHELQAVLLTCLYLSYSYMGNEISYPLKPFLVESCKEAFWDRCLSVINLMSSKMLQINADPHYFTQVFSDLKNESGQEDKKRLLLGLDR

Paired box protein Pax-8 = Paired box protein Pax-8 (Homo sapiens, UniProt Q06710); experiment: PAX8 transcriptional activity inhibition in RMG-I – RMG-I cells, luciferase, cherry-pick, dose response (AID 687027); assay type: functional, cell-based;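 further: luciferase reporter driven by Pax8 target thyroperoxidase promoter measured by SteadyGlo luminescence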
Chain of Paired box protein Pax-8 (Q06710 whole entry): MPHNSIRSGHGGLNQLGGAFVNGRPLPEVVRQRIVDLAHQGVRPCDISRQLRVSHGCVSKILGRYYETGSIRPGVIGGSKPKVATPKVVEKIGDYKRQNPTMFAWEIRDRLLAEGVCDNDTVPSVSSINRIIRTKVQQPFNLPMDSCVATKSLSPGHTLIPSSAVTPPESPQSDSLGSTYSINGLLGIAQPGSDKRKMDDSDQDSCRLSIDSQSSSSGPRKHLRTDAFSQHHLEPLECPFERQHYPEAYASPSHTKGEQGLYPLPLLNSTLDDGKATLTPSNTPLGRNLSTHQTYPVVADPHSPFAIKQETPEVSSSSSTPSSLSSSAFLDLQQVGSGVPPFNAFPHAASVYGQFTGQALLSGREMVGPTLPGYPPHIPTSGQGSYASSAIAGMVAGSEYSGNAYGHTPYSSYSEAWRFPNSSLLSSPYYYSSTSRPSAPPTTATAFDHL

[5] = molecular target: Luciferin 4-monooxygenase (Photinus pyralis, UniProt P08659); experiment: inhibition of purified Photinus pyralis luciferase – biochemical, luminescence, dose response (AID 1891)
Chain of Luciferin 4-monooxygenase (P08659 whole entry): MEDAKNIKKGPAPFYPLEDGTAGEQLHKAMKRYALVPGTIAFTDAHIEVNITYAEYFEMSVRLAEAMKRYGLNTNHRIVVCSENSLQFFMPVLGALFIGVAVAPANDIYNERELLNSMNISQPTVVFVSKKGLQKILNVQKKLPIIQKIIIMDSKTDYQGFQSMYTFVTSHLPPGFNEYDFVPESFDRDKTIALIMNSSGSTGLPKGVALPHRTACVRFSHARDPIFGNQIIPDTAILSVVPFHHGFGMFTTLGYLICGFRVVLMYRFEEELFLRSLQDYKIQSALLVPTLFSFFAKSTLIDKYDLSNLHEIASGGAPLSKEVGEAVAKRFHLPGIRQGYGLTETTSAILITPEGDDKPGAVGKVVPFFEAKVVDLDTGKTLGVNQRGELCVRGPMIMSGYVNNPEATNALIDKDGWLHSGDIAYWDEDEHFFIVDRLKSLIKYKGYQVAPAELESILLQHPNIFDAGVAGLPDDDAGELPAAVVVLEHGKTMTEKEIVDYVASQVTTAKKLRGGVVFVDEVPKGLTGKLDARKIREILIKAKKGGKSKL

[6] = molecular target: T2, Neuropeptide Y receptor type 2 (Homo sapiens, UniProt P49146); assay type: functional, cell-based;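 further: HEK293 cells expressing the receptor and a CNG channel; stimulus was NPY near EC95 followed by isoproterenol to raise cAMP; antagonist potency measured as restoring cAMP signal that NPY suppresses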
T2 sequence (P49146 whole entry): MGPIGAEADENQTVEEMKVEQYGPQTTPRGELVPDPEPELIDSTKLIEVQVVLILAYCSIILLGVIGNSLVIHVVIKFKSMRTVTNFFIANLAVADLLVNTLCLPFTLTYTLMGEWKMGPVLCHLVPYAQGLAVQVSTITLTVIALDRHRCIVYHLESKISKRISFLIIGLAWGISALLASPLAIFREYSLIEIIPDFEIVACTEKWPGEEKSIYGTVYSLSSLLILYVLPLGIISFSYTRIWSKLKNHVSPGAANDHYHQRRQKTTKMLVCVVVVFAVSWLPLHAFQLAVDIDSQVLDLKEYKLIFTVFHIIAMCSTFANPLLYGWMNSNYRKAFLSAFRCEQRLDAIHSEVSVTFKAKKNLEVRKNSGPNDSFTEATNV

[7] = molecular target: T3, Neuropeptide Y receptor type 1 (Homo sapiens, UniProt P25929); assay type: functional;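 further: HEK293 cells with a CNG channel challenged with NPY then isoproterenol; potency as antagonist that reverses NPY suppression of cAMP signal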
T3 sequence (P25929 whole entry): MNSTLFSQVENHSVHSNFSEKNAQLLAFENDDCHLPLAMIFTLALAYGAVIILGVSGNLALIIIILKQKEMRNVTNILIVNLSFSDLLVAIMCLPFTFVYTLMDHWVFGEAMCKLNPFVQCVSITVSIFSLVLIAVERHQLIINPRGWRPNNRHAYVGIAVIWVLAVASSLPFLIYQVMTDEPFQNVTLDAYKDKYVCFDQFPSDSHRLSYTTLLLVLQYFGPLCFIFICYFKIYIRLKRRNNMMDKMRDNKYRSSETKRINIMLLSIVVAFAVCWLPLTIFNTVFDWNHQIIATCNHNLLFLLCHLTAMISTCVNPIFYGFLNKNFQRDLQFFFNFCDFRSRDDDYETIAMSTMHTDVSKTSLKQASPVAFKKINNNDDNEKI

[8] = molecular target: T4, Zinc finger protein mex-5 (Caenorhabditis elegans, UniProt Q9XUB2); experiment: potency of MEX-5 RNA-binding blockers – biochemical, C. elegans, fluorescence polarization, dose response (AID 1960)
T4 sequence (Q9XUB2 whole entry): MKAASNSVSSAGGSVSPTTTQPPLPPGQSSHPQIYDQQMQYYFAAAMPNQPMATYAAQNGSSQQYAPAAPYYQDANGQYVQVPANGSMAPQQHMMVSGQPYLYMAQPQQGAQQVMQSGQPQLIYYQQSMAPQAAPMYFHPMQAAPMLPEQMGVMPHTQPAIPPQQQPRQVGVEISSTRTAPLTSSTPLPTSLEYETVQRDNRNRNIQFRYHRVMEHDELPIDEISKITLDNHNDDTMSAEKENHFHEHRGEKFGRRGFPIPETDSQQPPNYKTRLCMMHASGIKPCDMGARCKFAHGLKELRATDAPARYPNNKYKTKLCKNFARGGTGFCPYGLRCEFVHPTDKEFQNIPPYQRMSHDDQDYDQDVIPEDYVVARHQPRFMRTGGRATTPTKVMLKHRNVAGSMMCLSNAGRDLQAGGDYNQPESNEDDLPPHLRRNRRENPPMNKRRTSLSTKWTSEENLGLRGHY

[9] = molecular target: T5, RNA-binding protein pos-1 (Caenorhabditis elegans, UniProt G5EF15); experiment: disruptors of C. elegans POS-1 RNA interaction – biochemical, fluorescence polarization, dose response (AID 1964);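 further: purified POS-1 fused to maltose binding protein made in E. coli; potency of compounds blocking POS-1 binding to fluorescent RNA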
T5 sequence (G5EF15 whole entry): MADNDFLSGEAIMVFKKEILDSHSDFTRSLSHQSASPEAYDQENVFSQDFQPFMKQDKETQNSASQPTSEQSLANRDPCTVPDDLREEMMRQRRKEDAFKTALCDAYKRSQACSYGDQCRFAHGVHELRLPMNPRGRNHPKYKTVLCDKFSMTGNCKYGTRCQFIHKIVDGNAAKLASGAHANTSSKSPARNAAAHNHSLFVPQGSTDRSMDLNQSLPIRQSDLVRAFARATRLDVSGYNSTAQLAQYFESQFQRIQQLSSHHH

[10] = molecular target: Peroxisome proliferator-activated receptor gamma/Nuclear receptor corepressor 2 (Homo sapiens, UniProt P37231+Q9Y618); experiment: Counterscreen for NR2E3 inverse agonists: TR-FRET-based biochemical high throughput dose response assay to identify inverse agonists of the interaction between peroxisome proliferator-activated receptor gamma (PPARg) and nuclear receptor co-repressor 2 (NCOR2).; assay type: functional
Chain of Peroxisome proliferator-activated receptor gamma/Nuclear receptor corepressor 2 (P37231 whole entry): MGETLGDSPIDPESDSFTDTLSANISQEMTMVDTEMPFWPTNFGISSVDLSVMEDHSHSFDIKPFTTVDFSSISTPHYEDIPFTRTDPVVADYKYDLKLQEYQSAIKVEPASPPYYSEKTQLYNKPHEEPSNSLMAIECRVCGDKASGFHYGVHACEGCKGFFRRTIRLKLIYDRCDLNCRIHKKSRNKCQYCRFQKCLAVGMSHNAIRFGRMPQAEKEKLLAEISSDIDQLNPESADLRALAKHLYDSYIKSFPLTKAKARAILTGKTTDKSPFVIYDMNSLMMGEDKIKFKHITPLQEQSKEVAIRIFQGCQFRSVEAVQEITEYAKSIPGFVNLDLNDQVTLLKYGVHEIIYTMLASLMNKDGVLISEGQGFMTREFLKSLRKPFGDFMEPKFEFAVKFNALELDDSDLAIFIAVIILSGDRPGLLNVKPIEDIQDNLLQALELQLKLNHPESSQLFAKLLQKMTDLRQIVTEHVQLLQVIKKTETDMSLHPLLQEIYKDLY
Chain of Peroxisome proliferator-activated receptor gamma/Nuclear receptor corepressor 2 (Q9Y618 whole entry): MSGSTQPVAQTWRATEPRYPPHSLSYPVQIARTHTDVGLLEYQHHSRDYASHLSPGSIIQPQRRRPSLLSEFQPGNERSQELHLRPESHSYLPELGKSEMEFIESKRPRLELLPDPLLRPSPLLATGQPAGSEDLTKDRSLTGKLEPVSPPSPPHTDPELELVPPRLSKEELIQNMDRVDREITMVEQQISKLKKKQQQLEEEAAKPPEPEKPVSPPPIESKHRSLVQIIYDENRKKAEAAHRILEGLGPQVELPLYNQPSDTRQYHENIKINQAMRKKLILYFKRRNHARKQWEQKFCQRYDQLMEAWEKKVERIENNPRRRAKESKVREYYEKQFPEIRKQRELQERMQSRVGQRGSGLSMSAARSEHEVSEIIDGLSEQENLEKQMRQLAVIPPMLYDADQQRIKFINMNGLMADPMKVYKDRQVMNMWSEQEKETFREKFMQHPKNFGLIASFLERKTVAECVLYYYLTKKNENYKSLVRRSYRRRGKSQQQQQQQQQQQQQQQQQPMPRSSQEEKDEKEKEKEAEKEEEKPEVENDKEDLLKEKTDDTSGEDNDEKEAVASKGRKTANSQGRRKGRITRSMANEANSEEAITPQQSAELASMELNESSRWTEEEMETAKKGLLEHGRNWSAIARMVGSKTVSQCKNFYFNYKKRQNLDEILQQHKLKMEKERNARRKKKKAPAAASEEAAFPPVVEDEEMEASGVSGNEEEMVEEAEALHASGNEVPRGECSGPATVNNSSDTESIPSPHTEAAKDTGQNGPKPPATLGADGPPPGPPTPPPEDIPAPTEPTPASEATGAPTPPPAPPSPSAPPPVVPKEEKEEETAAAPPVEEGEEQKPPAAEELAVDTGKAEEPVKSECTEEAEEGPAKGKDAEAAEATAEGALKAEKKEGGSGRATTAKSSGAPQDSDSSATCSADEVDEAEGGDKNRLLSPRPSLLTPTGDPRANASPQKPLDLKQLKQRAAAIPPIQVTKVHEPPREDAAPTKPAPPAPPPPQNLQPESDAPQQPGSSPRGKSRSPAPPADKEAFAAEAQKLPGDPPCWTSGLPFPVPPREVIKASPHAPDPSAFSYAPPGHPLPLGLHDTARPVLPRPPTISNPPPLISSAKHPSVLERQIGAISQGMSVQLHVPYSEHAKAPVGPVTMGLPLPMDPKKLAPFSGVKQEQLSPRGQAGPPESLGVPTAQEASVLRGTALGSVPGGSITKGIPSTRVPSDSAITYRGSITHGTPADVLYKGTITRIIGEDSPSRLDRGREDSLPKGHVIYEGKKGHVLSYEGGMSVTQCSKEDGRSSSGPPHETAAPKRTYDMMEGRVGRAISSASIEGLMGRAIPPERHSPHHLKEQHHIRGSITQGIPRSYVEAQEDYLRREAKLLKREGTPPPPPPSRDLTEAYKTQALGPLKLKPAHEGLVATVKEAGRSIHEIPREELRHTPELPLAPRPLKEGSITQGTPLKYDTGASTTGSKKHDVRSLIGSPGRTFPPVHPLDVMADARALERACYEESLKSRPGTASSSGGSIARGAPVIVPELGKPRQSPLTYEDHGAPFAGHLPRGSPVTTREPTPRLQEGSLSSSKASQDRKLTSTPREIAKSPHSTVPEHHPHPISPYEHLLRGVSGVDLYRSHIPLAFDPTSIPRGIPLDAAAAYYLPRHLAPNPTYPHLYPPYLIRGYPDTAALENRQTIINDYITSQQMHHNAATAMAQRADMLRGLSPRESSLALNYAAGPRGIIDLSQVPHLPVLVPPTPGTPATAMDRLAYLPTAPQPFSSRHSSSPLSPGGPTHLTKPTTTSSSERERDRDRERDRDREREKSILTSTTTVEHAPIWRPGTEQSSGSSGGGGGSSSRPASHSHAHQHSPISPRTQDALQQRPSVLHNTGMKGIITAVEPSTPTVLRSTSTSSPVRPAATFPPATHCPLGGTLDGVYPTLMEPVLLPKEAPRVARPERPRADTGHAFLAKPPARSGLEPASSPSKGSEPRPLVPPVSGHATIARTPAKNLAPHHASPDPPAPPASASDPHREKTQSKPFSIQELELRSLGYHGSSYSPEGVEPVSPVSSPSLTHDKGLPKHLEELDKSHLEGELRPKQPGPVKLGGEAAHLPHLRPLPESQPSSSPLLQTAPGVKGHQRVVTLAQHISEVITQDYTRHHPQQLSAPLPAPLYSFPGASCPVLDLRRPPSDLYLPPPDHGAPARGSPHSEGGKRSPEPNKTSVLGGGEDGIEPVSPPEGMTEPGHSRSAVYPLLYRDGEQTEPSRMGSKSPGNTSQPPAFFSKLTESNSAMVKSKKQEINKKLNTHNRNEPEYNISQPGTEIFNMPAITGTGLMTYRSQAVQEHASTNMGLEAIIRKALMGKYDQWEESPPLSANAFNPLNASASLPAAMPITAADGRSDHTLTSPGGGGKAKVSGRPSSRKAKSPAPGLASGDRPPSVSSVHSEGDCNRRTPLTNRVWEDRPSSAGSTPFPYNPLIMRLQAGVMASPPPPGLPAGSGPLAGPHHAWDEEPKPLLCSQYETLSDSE

[11] = luciferase reporter signal suppression in cells – H4 neuroglioma cells, luminescence, dose response (AID 1990); assay type: functional, cell-based
[12] = alpha-synuclein stem-loop luciferase translation blockers – H4 neuroglioma cells, luminescence, confirmation (AID 1988); assay type: functional, cell-based
[13] = Luminescence Cell-Based Dose Response HTS to Identify Inhibitors of 5'UTR Stem-Loop Driven Prion Protein mRNA Translation in H4 Neuroglioblastoma Cells. [Related pubchem assays: 1827 (Project Summary), 1813 (Primary HTS)]; assay type: functional
[14] = molecular target: Photoreceptor-specific nuclear receptor (Homo sapiens, UniProt Q9Y5X4); experiment: ligands suppressing NR2E3 nuclear receptor activity – biochemical, TR-FRET, dose response (AID 463256); assay type: functional
Chain of Photoreceptor-specific nuclear receptor (Q9Y5X4 whole entry): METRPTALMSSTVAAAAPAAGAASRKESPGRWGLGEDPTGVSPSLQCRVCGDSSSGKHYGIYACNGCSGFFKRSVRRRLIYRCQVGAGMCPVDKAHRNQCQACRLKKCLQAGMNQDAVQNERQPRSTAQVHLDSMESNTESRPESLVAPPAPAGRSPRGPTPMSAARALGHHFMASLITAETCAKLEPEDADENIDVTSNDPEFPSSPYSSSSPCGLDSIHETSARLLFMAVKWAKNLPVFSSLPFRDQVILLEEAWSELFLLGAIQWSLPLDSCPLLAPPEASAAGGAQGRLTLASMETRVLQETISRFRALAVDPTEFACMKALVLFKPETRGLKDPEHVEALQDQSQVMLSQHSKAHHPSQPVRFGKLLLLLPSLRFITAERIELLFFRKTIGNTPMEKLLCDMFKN

Coagulation factor XII = molecular target: T6, Coagulation factor XII (Homo sapiens, UniProt P00748); assay type: functional;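 further: activated factor XIIa alpha cleaving a fluorogenic AMC peptide substrate; inhibitor potency from loss of enzyme activity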
T6 sequence (P00748 whole entry): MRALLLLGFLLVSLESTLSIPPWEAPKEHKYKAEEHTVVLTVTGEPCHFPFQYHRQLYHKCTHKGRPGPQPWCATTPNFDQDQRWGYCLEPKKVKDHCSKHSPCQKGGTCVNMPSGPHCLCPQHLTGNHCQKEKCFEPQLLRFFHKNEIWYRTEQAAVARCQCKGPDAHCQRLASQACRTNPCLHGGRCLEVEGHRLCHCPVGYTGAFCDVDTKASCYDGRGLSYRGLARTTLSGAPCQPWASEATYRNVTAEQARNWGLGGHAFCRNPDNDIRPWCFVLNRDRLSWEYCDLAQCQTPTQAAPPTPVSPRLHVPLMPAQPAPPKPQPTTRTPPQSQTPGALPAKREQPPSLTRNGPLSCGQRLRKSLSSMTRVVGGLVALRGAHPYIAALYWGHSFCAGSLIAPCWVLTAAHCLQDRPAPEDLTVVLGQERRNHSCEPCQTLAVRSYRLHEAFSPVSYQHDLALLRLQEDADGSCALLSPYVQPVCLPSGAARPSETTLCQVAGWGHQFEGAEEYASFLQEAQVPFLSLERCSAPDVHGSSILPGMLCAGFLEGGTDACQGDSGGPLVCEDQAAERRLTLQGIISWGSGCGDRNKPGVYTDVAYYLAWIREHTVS

CAAX prenyl protease 2 = molecular target: T7, CAAX prenyl protease 2 (Saccharomyces cerevisiae S288c, UniProt Q03530); assay type: biochemical
T7 sequence (Q03530 whole entry): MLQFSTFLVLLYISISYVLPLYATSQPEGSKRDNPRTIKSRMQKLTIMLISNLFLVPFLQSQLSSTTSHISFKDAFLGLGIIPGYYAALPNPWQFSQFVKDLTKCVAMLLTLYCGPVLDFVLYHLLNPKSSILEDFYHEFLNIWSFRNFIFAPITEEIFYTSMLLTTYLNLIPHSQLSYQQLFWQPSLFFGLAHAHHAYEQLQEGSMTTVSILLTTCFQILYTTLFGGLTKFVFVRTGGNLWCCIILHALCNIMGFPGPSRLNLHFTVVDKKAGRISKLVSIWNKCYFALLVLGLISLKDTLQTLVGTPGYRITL

[15] = HEK-293T viability loss after treatment – luminescence, T-cell screen hits, cytotoxicity control for TCR NF-kB inhibitor project, dose response (AID 489026); assay type: functional, cell-based;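 further: cells exposed to compound about 14 hours before the viability readout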
[16] = molecular target: T8, Microphthalmia-associated transcription factor (Homo sapiens, UniProt O75030); experiment: reducers of TRPM1 reporter luminescence, concentration series – cell-based, SK-MEL-5, cherry-picked, set 3, MITF inhibitor project, dose response (AID 493073); assay type: functional;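 further: SK-MEL-5 melanoma cells with luciferase driven by the MITF target TRPM1 promoter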
T8 sequence (O75030 whole entry): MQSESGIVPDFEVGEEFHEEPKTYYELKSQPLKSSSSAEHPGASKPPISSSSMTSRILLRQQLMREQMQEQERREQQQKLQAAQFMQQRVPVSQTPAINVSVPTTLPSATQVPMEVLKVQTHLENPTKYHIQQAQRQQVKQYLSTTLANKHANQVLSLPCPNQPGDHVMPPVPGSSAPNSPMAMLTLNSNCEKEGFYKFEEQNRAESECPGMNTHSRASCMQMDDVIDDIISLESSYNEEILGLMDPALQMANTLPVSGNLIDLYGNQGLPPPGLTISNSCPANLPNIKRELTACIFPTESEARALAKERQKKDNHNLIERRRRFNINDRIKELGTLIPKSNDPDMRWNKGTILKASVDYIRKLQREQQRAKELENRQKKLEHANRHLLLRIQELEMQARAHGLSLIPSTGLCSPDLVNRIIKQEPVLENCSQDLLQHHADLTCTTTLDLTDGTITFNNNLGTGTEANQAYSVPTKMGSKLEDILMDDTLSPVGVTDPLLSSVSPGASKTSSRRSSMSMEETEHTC

Compound: CC(C)OC(=O)/C(C#N)=C/c1ccc(-c2ccc(SC(F)F)cc2)o1
- EC50 [1]: > 99 µM (inactive)
- EC50 [2]: 11.9 µM (active)
- CC50 [3]: > 40 µM (active)

Compound: COc1ccc(C(=O)ON=C(N)c2ccccn2)cc1
- AC50 [4]: 12.6 µM (active)
- AC50 (Paired box protein Pax-8): 8.88 µM (active)
- EC50 [5]: 1.47 µM (active)

Compound: CC(C)OC(=O)/C(=C/c1ccc2c(c1)c1ccccc1n2C)NC(=O)c1ccccc1
- IC50 [6]: 14.7 µM (not active)
- IC50 [7]: 19.1 µM (not active)

Compound: Cc1cccc(-n2ccnc2SCC(=O)N2CCCc3ccccc32)c1C
- IC50 [6]: 1.56 µM (active)
- IC50 [7]: 4.08 µM (active)

Compound: COc1ccc(N/C=C\C(=O)c2ccc(C)cc2)cc1OC
- EC50 [8]: > 300 µM (not active)
- EC50 [1]: > 99 µM (inactive)
- EC50 [9]: > 300 µM (not active)
- EC50 [2]: 25 µM (inactive)

Compound: Cc1ccc2nc(-c3cc(-c4ccccc4)no3)cn2c1
- IC50 [10]: > 39.8 µM (not active)
- EC50 [11]: 7.48 µM (inconclusive)
- EC50 [12]: 3.08 µM (active)
- EC50 [13]: 3.61 µM (active)
- IC50 [14]: > 39.8 µM (not active)

Compound: O=C(NCCN1C(=O)C2C3C=CC(C3)C2C1=O)Nc1ccccc1 (centres undefined)
- IC50 (Coagulation factor XII): > 50 µM (inactive)

Compound: Oc1ccc(-c2nc3ccccn3c2NCc2ccc3c(c2)OCO3)cc1
- AC50 (CAAX prenyl protease 2): 27.7 µM (active)

Compound: O=C(CCc1nc(-c2ccccc2)c(-c2ccccc2)o1)OCc1ccc(Br)cc1
- IC50 [6]: 15.1 µM (not active)
- IC50 [7]: 8.36 µM (active)

Compound: CN1CCN(C(=O)c2ccc3c(c2)NC(=O)/C(=C/c2ccccc2)S3)CC1
- AC50 [4]: 29.7 µM (active)

Compound: CN(C(=O)Oc1cccc2cccnc12)c1ccccc1
- IC50 (Coagulation factor XII): > 50 µM (inactive)

Compound: CCOC(=O)c1cc2c(O)nccc2nc1C
- AC50 (CAAX prenyl protease 2): 10.3 µM (active)

Compound: COc1cc(-c2noc(C)c2C#Cc2ccsc2)cc(OC)c1OC
- IC50 [15]: > 80 µM (inactive)

Compound: Cc1nn(-c2ncccn2)c2c1C(=O)CC(C)(C)C2Br (centres undefined)
- AC50 [4]: 69.7 µM (active)

Compound: CCOC(=O)Cn1/c(=N/C(=O)c2ccc([N+](=O)[O-])s2)sc2ccccc21
- EC50 [1]: > 99 µM (inactive)
- AC50 [16]: 3.5 µM (active)
- EC50 [2]: > 99 µM (inactive)

Compound: Cc1ccc(C(=O)Nc2cccc(C(=O)N/N=C/c3ccc(F)cc3)c2)cc1
- EC50 [1]: 41.1 µM (inactive)
- EC50 [2]: > 99 µM (inactive)

Compound: COc1cc2c(cc1O)CC[C@@H]1[C@@H]2CC[C@]2(C)[C@@H](O)CC[C@@H]12 [2-METHOXYESTRADIOL]
- IC50 [15]: > 80 µM (inactive)
